Tests used:
[1] = system: OsPEP1 RNAi transgenic plants; test: Exogenous PEP1 on root tips of OsPEP1 RNAi transgenic plants; assay type: in vivo, rice Xiushui 134; conditions: transgenic plant Ri2, 10^−6 M PEP1 for 2 days
Text: D is the longitudinal phenotype of the root tip elongation zone (top) and meristem (bottom) of the wild-type WT and the transgenic plant Ri2 […] treated with 10^−6 M PEP1 for 2 days. Bar=100 μm;
(§1) E is the statistics of the apical meristem length indicated in D. Data are means±SD (n≥15 independent seedlings, three biological replicates). Different letters indicate significant differences (P<0.01, ANOVA, LSD test);
F is the statistics of cell length in the elongation zone indicated in D. Data are means±SD (n≥15 independent seedlings, three biological replicates). Different letters indicate significant differences (P<0.01, ANOVA, LSD test).
In the obtained T2 OsPEP1 RNAi transgenic plants, three representative plants (Ri1, Ri2, Ri3) were selected for phenotypic analysis. […] The relative expression levels of endogenous OsPEP1 in Xiushui 134 and those OsPEP1 RNAi transgenic plants (Ri1, Ri2, Ri3) were analyzed by quantitative real-time PCR (primers: […] (SEQ ID NO: 9); […] (SEQ ID NO: 10)). […] Additionally, exogenous application of PEP1 could restore the root tip defected phenotype of OsPEP1 RNAi transgenic plants to the Xiushui 134 level (D-F in FIG. 5).

rice root tips = test: Root tip longitudinal sections of wild-type rice after PEP1 treatment; assay type: in vivo, Oryza sativa L. ssp. Japonica cv. Xiushui134; set-up: length of cells in the elongation zone of rice root tips: dose or concentration left out as unconfirmed; conditions: wild-type plants
[2] = system: OsPEP1 overexpressing transgenic plants; test: Exogenous PEP1 on root tips of OsPEP1 overexpressing transgenic plants; assay type: in vivo, rice Xiushui 134; conditions: transgenic plant OE2, 10^−6 M PEP1 for 2 days
Text: as §1
F is the statistics of the cell length in the elongation zone indicated in D. Data are means±SD (n≥15 independent seedlings, three biological replicates). Different letters indicate significant differences (P<0.01, ANOVA, LSD test).
In the obtained T2 OsPEP1 overexpressing transgenic rice plants, three representative plants (OE1, OE2, OE3) were chosen for phenotypic analysis. […] The relative expression levels of endogenous OsPEP1 in Xiushui 134 and OsPEP1 overexpressing transgenic plants (OE1, OE2, OE3) were analyzed by quantitative real-time PCR (primers: […] (SEQ ID NO: 9); […] (SEQ ID NO: 10)).

rice seedlings = test: Treatment of rice seedlings with synthetic PEP1, primary root length; assay type: in vivo, Oryza sativa L. ssp. Japonica cv. Xiushui134; conditions: wild-type seedlings, different concentrations of synthetic PEP1, treatment from sowing for 7 days
Text: Different letters indicate significant differences (P<0.01, ANOVA, LSD test);

## Ser-Asp-Phe-Asp-Arg (SDFDR; Amino acid sequence of PEP1) [rice root-secreted peptide of five amino acids, artificially synthesized for exogenous application]
[1]
  restoration of root tip defected phenotype to the Xiushui 134 level: could restore
Rice root tips; 106 M PEP1 for 2 days
  length of the meristem of rice root tips: significantly shortened
Rice root tips; PEP1 for 2 days
  length of cells in the elongation zone of rice root tips: significantly shortened
Rice root tips; root section after PEP1 treatment
  changes in the quiescent center: no significant changes
[2]
  restoration of root tip defected phenotype to the Xiushui 134 level: could not restore
Rice seedlings
  rice primary root elongation: significantly inhibited rice primary root elongation

Source: US12203088B2, “Root-secreted peptide PEP1 in rice and gene encoding the same and use thereof” (ZHEJIANG UNIVERSITY, priority 2021, dated 2025)
